Here are results for 13 compounds from patent publication US20240209053A1 (Protagonist Therapeutics, Inc., priority 2021, published 2024).

One experiment deals with T1, ferroportin (Homo sapiens, UniProt Q9NP59).
T1 sequence (Q9NP59 1-571): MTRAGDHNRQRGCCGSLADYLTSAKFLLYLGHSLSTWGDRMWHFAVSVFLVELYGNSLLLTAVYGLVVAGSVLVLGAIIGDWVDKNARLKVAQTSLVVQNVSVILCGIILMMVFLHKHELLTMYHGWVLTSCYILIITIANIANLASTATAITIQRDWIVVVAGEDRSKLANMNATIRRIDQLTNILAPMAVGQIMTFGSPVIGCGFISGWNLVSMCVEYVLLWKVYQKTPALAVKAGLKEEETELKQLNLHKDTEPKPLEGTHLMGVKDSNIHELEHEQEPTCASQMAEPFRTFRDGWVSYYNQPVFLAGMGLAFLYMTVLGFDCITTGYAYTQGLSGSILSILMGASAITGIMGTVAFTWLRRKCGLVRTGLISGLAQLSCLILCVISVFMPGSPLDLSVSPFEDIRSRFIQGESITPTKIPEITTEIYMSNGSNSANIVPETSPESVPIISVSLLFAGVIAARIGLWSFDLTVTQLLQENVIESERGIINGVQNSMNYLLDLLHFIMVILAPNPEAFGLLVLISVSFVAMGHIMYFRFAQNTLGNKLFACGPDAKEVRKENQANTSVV
The experiment can be described thus: T47D cell-based ferroportin internalization assay in presence of 0.5% mouse serum albumin (MSA). The conditions noted are these: T47D cells. The method, then:
The potency of the peptides in causing ferroportin internalization was evaluated in a T47D cell-based assay. […] In this internalization assay, the potency of the test peptides was evaluated in presence of serum albumin which is the main protein component in the blood. T47D cells were maintained in RPMI media (containing required amount of fetal bovine serum) and regularly sub-cultured. In preparation for the assay, the cells were seeded in 96-well plates at a density of 80-100 k cells per well in 100 ul volume and allowed to rest overnight. On the next day, test peptides were first prepared in dilution series (10-point series, starting concentration of ˜5 μM, typically 3-4×fold dilution steps), all with 0.5% mouse serum albumin (MSA purified from mouse serum; Sigma, A3139). The test peptide dilution series were allowed to incubate at room temperature for 30 min. Then the media was aspirated from the 96-well cell plate and test peptide dilution series were added. After 1 hr incubation, the media with test peptides was aspirated out and AF647-conjugated detection peptide was added at fixed concentration of 200 nM. The AF647-conjugated detection peptide was previously verified to bind to ferroportin and cause its internalization. The cells were washed again after a 2 hr incubation in preparation for flow cytometry analysis. The Median Fluorescence Intensity (MFI) of the AF647-positive population was measured (after removing dead cells and non-singlets from the analysis). The MFI values were used to generate a dose-response curve and obtain IC50 potencies for the test peptides. The IC50 potencies were calculated by using 4-parameter non-linear fitting function in Graphpad Prism (Table 6A).

In experiment [1] the target is T2, human ferroportin (SLC40A1) (Homo sapiens, UniProt Q9NP59).
T2 sequence (Q9NP59 1-571): T1 sequence (Q9NP59 1-571)
The experiment can be described thus: FPN activity assay: internalization/degradation of ferroportin-GFP in stably transfected HEK293 cells (decrease in GFP fluorescence). The following applies: compound incubated at least 18 hours. Type of experiment: cell-based. How it is done: Peptide analogues were tested in vitro for induction of internalization of the human ferroportin protein. Following internalization, the ferroporin protein is degraded. The assay used (FPN activity assay) measures a decrease in fluorescence of the receptor. The cDNA encoding the human ferroportin (SLC40A1) was cloned from a cDNA clone from Origene (NM_014585). The DNA encoding the ferroportin was amplified by PCR using primers also encoding terminal restriction sites for subcloning, but without the termination codon. The ferroportin receptor was subcloned into a mammalian GFP expression vector containing a neomycin (G418) resistance marker in such that the reading frame of the ferroportin was fused in frame with the GFP protein. The fidelity of the DNA encoding the protein was confirmed by DNA sequencing. HEK293 cells were used for transfection of the ferroportin-GFP receptor expression plasmid. The cells were grown according to standard protocol in growth medium and transfected with the plasmids using Lipofectamine (manufacturer's protocol, Invitrogen). The cells stably expressing ferroportin-GFP were selected using G418 in the growth medium (in that only cells that have taken up and incorporated the cDNA expression plasmid survive) and sorted several times on a Cytomation MoFloTM cell sorter to obtain the GFP-positive cells (488 nm/530 nm). The cells were propagated and frozen in aliquots. […] Compound was added to desired final concentration for at least 18 hours in the incubator. […] Compound was added to desired final concentration for at least 18 hours but no more than 24 hours in the incubator. […] The “RI” in RI-Mini-Hepcidin refers to Retro Inverse. A retro inverse peptide is a peptide with a reversed sequence in all D amino acids. An example is that […] becomes […]. The EC50 of these reference compounds for ferroportin internalization/degradation was determined according to the FPN activity assay described above. These peptides served as control standards.

Numbered stars: 1 amine (or outer) side, 2 acyl side, 3 side chain; on linkers, the order of the positions; unused ones are H or OH. Bridge positions count the residues as written; N and C are the ends. Square brackets hold non-standard residues; d marks the D form. Side chains are listed from the residue outwards. Peptide text beside a SMILES is read from it. * marks the point of attachment. Dip = N[C@H](C(=O)O)C(c1ccccc1)c1ccccc1; Hag = O=C([C@H](CCC=[*:3])N[*:1])[*:2]; Palmitoyl = CCCCCCCCCCCCCCCC(=O)*; β3hF = N[C@H](CC(=O)O)Cc1ccccc1; Isovaleryl = CC(C)CC(=O)*; Ahx = NCCCCCC(=O)O

One may read the IC50 as the concentration that inhibits the measured activity by half. With `CCCCCCCCCCCCCCCC(=O)NCCCCCC(=O)NCCCC[C@H](NC(=O)C[C@H](Cc1ccccc1)NC(=O)[C@@H]1CCC=CC[C@H](NC(=O)CC(C)C)C(=O)N[C@@H]([C@@H](C)O)C(=O)N[C@@H](Cc2c[nH]cn2)C(=O)N[C@@H](C(c2ccccc2)c2ccccc2)C(=O)N2CCC[C@H]2C(=O)N[C@@H](C)C(=O)N[C@@H]([C@@H](C)CC)C(=O)N1)C(=O)N[C@@H](CCCNC(=N)N)C(N)=O` [Compd 23], the IC50 on ferroportin fell in the range of 1 to 10 nM; in experiment [1] it was 10 to 100 nM.

As to `CCCCCCCCCCCCCCCC(=O)NCCCCCC(=O)NCCCC[C@@H]1NC(=O)[C@@H]2CCCN2C(=O)[C@H](C(c2ccccc2)c2ccccc2)NC(=O)[C@H](Cc2c[nH]cn2)NC(=O)[C@H]([C@@H](C)O)NC(=O)[C@@H](NC(=O)CC(C)C)CCC=CCC[C@@H](C(=O)N[C@H](CC(N)=O)Cc2ccccc2)NC(=O)[C@H]([C@@H](C)CC)NC1=O` [Compd 24] (Isovaleryl-[Hag]TH[Dip]PK([Ahx-Palmitoyl])I[Hag][β3hF]-NH2; staple 1-8), the IC50 (at ferroportin; in experiment [1]) was 10 to 100 nM throughout.

As for `CCCCCCCCCCCCCCCC(=O)NCCCCCC(=O)NCCCC[C@@H]1NC(=O)[C@H](C)NC(=O)[C@@H]2CCCN2C(=O)[C@H](C(c2ccccc2)c2ccccc2)NC(=O)[C@H](Cc2c[nH]cn2)NC(=O)[C@H]([C@@H](C)O)NC(=O)[C@@H](NC(=O)CC(C)C)CCC=CCC[C@@H](C(=O)N[C@H](CC(N)=O)Cc2ccccc2)NC1=O` [Compd 25] (Isovaleryl-[Hag]TH[Dip]PAK([Ahx-Palmitoyl])[Hag][β3hF]-NH2; staple 1-8), the IC50 (on ferroportin; in experiment [1]) was 100 to 500 nM each time.

`CCCCCCCCCCCCCCCC(=O)NCCCCCC(=O)NCCCC[C@H](NC(=O)C[C@H](Cc1ccccc1)NC(=O)[C@@H]1CC=CCC[C@H](NC(=O)CC(C)C)C(=O)N[C@@H]([C@@H](C)O)C(=O)N[C@@H](Cc2c[nH]cn2)C(=O)N[C@@H](C(c2ccccc2)c2ccccc2)C(=O)N2CCC[C@H]2C(=O)N[C@@H](C)C(=O)N[C@@H]([C@@H](C)CC)C(=O)N1)C(=O)N[C@H](CCCCN)C(N)=O` [Compd 26]: the IC50 (at ferroportin; in experiment [1]) was 10 to 100 nM in each case.

For `CCCCCCCCCCCCCCCC(=O)NCCCCCC(=O)NCCCC[C@H](NC(=O)C[C@H](Cc1ccccc1)NC(=O)[C@@H]1CCC=CC[C@H](NC(=O)CC(C)C)C(=O)N[C@@H]([C@@H](C)O)C(=O)N[C@@H](Cc2c[nH]cn2)C(=O)N[C@@H](C(c2ccccc2)c2ccccc2)C(=O)N2CCC[C@H]2C(=O)N[C@@H](C)C(=O)N[C@@H]([C@@H](C)CC)C(=O)N1)C(=O)N[C@H](CCCCN)C(N)=O` [Compd 27], the IC50 (at ferroportin; in experiment [1]) was 10 to 100 nM throughout.

Consider `CCCCCCCCCCCCCCCC(=O)NCCCCCC(=O)NCCCC[C@H](NC(=O)C[C@H](Cc1ccccc1)NC(=O)[C@@H]1CCCC=CCCC[C@H](NC(=O)CC(C)C)C(=O)N[C@@H]([C@@H](C)O)C(=O)N[C@@H](Cc2c[nH]cn2)C(=O)N[C@@H](C(c2ccccc2)c2ccccc2)C(=O)N2CCC[C@H]2C(=O)N[C@@H](C)C(=O)N[C@@H]([C@@H](C)CC)C(=O)N1)C(=O)N[C@H](CCCCN)C(N)=O` [Compd 28], for which the IC50 (on ferroportin; in experiment [1]) was 1 to 10 nM throughout.

`CCCCCCCCCCCCCCCC(=O)NCCCCCC(=O)NCCCC[C@H](NC(=O)C[C@H](Cc1ccccc1)NC(=O)[C@@H]1CCC=CCCC[C@H](NC(=O)CC(C)C)C(=O)N[C@@H]([C@@H](C)O)C(=O)N[C@@H](Cc2c[nH]cn2)C(=O)N[C@@H](C(c2ccccc2)c2ccccc2)C(=O)N2CCC[C@H]2C(=O)N[C@@H](C)C(=O)N[C@@H]([C@@H](C)CC)C(=O)N1)C(=O)N[C@H](CCCCN)C(N)=O` [Compd 29]: the IC50 (on ferroportin; in experiment [1]) was 1 to 10 nM in each case.

As to `CCCCCCCCCCCCCCCC(=O)NCCCCCC(=O)NCCCC[C@H](NC(=O)C[C@H](Cc1ccccc1)NC(=O)[C@@H]1CC=CCCC[C@H](NC(=O)CC(C)C)C(=O)N[C@@H]([C@@H](C)O)C(=O)N[C@@H](Cc2c[nH]cn2)C(=O)N[C@@H](C(c2ccccc2)c2ccccc2)C(=O)N2CCC[C@H]2C(=O)N[C@@H](C)C(=O)N[C@@H]([C@@H](C)CC)C(=O)N1)C(=O)N[C@H](CCCCN)C(N)=O` [Compd 30], the IC50 (on ferroportin; in experiment [1]) was 1 to 10 nM each time.

Take `CCCCCCCCCCCCCCCC(=O)NCCCCCC(=O)NCCCC[C@H](NC(=O)C[C@H](Cc1ccccc1)NC(=O)[C@@H]1CCCC=CCC[C@H](NC(=O)CC(C)C)C(=O)N[C@@H]([C@@H](C)O)C(=O)N[C@@H](Cc2c[nH]cn2)C(=O)N[C@@H](C(c2ccccc2)c2ccccc2)C(=O)N2CCC[C@H]2C(=O)N[C@@H](C)C(=O)N[C@@H]([C@@H](C)CC)C(=O)N1)C(=O)N[C@H](CCCCN)C(N)=O` [Compd 31]: the IC50 (at ferroportin; in experiment [1]) was 10 to 100 nM each time.

On to `CCCCCCCCCCCCCCCC(=O)NCCCCCC(=O)NCCCC[C@@H]1NC(=O)[C@@H]2CCCN2C(=O)[C@H](C(c2ccccc2)c2ccccc2)NC(=O)[C@H](Cc2c[nH]cn2)NC(=O)[C@H]([C@@H](C)O)NC(=O)[C@@H](NC(=O)CC(C)C)CCCC=CCCC[C@@H](C(=O)N[C@H](CC(=O)N[C@H](CCCCN)C(N)=O)Cc2ccccc2)NC(=O)[C@H]([C@@H](C)CC)NC1=O` [Compd 33], for which the IC50 (at ferroportin; in experiment [1]) was 1 to 10 nM in each case.

Take `CCCCCCCCCCCCCCCC(=O)NCCCCCC(=O)NCCCC[C@@H]1NC(=O)[C@H](C)NC(=O)[C@@H]2CCCN2C(=O)[C@H](C(c2ccccc2)c2ccccc2)NC(=O)[C@H](Cc2c[nH]cn2)NC(=O)[C@H]([C@@H](C)O)NC(=O)[C@@H](NC(=O)CC(C)C)CCCC=CCCC[C@@H](C(=O)N[C@H](CC(=O)N[C@H](CCCCN)C(N)=O)Cc2ccccc2)NC1=O` [Compd 34]: the IC50 (at ferroportin; in experiment [1]) was 1 to 10 nM in each case.

As to `CCCCCCCCCCCCCCCC(=O)NCCCCCC(=O)NCCCC[C@@H]1NC(=O)[C@@H]2CCCN2C(=O)[C@H](C(c2ccccc2)c2ccccc2)NC(=O)[C@H](Cc2c[nH]cn2)NC(=O)[C@H]([C@@H](C)O)NC(=O)[C@@H](NC(=O)CC(C)C)CCC=CCC[C@@H](C(=O)N[C@H](CC(=O)N[C@H](CCCCN)C(N)=O)Cc2ccccc2)NC(=O)[C@H]([C@@H](C)CC)NC1=O` [Compd 36], the IC50 was 1 to 10 nM on ferroportin and 10 to 100 nM in experiment [1].

On to `CCCCCCCCCCCCCCCC(=O)NCCCCCC(=O)NCCCC[C@H](NC(=O)C[C@H](Cc1ccccc1)NC(=O)[C@@H]1CCC=CCC[C@H](NC(=O)CC(C)C)C(=O)N[C@@H](C)C(=O)N[C@@H](Cc2c[nH]cn2)C(=O)N[C@@H](C(c2ccccc2)c2ccccc2)C(=O)N2CCC[C@H]2C(=O)N[C@@H](C)C(=O)N[C@@H]([C@@H](C)CC)C(=O)N1)C(=O)N[C@H](CCCCN)C(N)=O` [Compd 41] (Isovaleryl-[Hag]AH[Dip]PAI[Hag][β3hF]K([Ahx-Palmitoyl])[dK]-NH2; staple 1-8), for which the IC50 (on ferroportin; in experiment [1]) was 100 to 500 nM throughout.
